Data reported in patent US20230219927A1, “AKT3 MODULATORS” (Georgiamune LLC, priority 2020, published 2023).

Tests used:
Akt3 [1] = molecular target: T1, Akt3 (Homo sapiens, UniProt Q9Y243); assay: Akt3 activation activity of selected compounds; type: cell-based; settings: Table 2
T1 construct: endogenous in cells; host or cells: primary human CD4+/CD45RA+/CD25- naive T cells
Procedure: (§1) Human CD4+/CD45RA+/CD25-naïve T cells were plated under induction conditions (IL-2/anti-CD3/anti-CD28+TGFβ) in the absence or presence of compounds for 72 hours. To determine the compounds' specificity for each phospho-AKT isoform, phospho-AKT cellular HTRF kits (Cisbio catalogue numbers 63ADK078PEG (pAKT1), 63ADK080PEG (p-AKT2), and 63ADK082PEG (pAKT3)) were used according to manufacturer specifications. Briefly, after removal of the supernatant, cells were lysed, and total protein concentration measured and normalized for all samples. The cell lysates were transferred into 384-well plates and Eu Cryptate antibody+d2 antibody mixture was added. This process was the same for each isoform but utilized the corresponding isoform antibodies from each respective kit. Positive and negative controls (supplied with the kit) were incorporated into each experiment. The plates were incubated overnight. Data acquisition was performed on the Varioskan Lux reader utilizing the settings for the TRF fluorescence protocol. Data was presented as percent change over DMSO-treated controls. Each test condition was run in duplicate, and the assay was performed at least twice.

Akt3 [2] = molecular target: T1, Akt3; assay: Akt3 inhibition activity of selected compounds; type: cell-based; settings: Table 1
Procedure: as §1

T1 sequence (Q9Y243 whole entry): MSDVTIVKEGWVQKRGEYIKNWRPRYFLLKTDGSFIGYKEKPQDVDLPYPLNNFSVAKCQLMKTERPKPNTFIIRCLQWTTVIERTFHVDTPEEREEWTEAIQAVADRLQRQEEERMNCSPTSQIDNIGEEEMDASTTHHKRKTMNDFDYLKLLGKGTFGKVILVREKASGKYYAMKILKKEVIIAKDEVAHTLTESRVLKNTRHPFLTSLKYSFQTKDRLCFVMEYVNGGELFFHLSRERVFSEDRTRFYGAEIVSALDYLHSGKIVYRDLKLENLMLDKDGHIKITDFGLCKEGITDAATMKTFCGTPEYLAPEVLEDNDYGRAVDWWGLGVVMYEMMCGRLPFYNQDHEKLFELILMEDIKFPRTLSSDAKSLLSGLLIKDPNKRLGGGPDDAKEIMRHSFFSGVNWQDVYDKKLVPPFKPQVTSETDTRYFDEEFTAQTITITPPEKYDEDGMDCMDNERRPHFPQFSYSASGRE

Row | Compound | IC50 (Akt3 [1]) [µM] | IC50 (Akt3 [2]) [µM]
1 | CS(=O)(=O)c1ccc2nccc(Nc3cccc(C(=O)Nc4cccc(Nc5ccncc5)c4)c3)c2c1 [Compound 3, 3-((6-(methylsulfonyl)quinolin-4-yl)amino)-N-(3-(pyridin-4-ylamino)phenyl)benzamide] | < 5 | 
2 | C#Cc1ccc2nccc(Nc3cccc(C(=O)Nc4cccc(Nc5ccncc5)c4)c3)c2c1 [Compound 4, 3-((6-ethynylquinolin-4-yl)amino)-N-(3-(pyridin-4-ylamino)phenyl)benzamide] |  | < 1
3 | [N-]=[N+]=Nc1ccc2nccc(Nc3cccc(C(=O)Nc4cccc(Nc5ccncc5)c4)c3)c2c1 [Compound 5, 3-((6-azidoquinolin-4-yl)amino)-N-(3-(pyridin-4-ylamino)phenyl)benzamide] |  | < 1
4 | N#Cc1ccc2nccc(Nc3cccc(C(=O)Nc4cccc(Nc5ccncc5)c4)c3)c2c1 [Compound 6, 3-((6-cyanoquinolin-4-yl)amino)-N-(3-(pyridin-4-ylamino)phenyl)benzamide] | < 2 | 
5 | O=C(Nc1cccc(Oc2ccncc2)c1)c1cccc(Nc2ccnc3ccc(F)cc23)c1 [Compound 10, 3-((6-fluoroquinolin-4-yl)amino)-N-(3-(pyridin-4-yloxy)phenyl)benzamide] |  | < 0.5
6 | O=C(Nc1cccc(Nc2ccncc2)n1)c1cccc(Nc2ccnc3ccc(F)cc23)c1 [Compound 21, 3-((6-fluoroquinolin-4-yl)amino)-N-(6-(pyridin-4-ylamino)pyridin-2-yl)benzamide] |  | < 2
7 | N#Cc1ccc2nccc(Nc3cccc(C(=O)Nc4cc(Nc5ccncc5)ccn4)c3)c2c1 [Compound 26, 3-((6-cyanoquinolin-4-yl)amino)-N-(4-(pyridin-4-ylamino)pyridin-2-yl)benzamide] | < 5 | 
8 | CN(C)c1ccc2nccc(Nc3cccc(C(=O)Nc4cccc(Nc5ccncc5)c4)c3)c2c1 [Compound 31, 3-((6-(dimethylamino)quinolin-4-yl)amino)-N-(3-(pyridin-4-ylamino)phenyl)benzamide] | < 1 | 
9 | O=C(Nc1cc(Nc2ccncc2)ccn1)c1cccc(Nc2ccnc3ccccc23)c1 [Compound 38, N-(4-(pyridin-4-ylamino)pyridin-2-yl)-3-(quinolin-4-ylamino)benzamide] |  | < 1
10 | Cc1cc(Nc2cccc(NC(=O)c3cccc(Nc4ccnc5ccc(N(C)C)cc45)c3)c2)ccn1 [Compound 59, 3-((6-(dimethylamino)quinolin-4-yl)amino)-N-(3-((2-methylpyridin-4-yl)amino)phenyl)benzamide] | < 1 | 
11 | Cc1cc(Nc2ccnc(NC(=O)c3cccc(Nc4ccnc5ccc(N(C)C)cc45)c3)c2)ccn1 [Compound 61, 3-((6-(dimethylamino)quinolin-4-yl)amino)-N-(4-((2-methylpyridin-4-yl)amino)pyridin-2-yl)benzamide] | < 1 | 
12 | Cc1cc(Oc2cccc(NC(=O)c3cncc(Nc4ccnc5ccc(N(C)C)cc45)c3)c2)ccn1 [Compound 65, 5-((6-(dimethylamino)quinolin-4-yl)amino)-N-(3-((2-methylpyridin-4-yl)oxy)phenyl)nicotinamide] | < 2 | 
13 | O=C(c1cccc(Nc2ccnc3ccc(F)cc23)c1)N1CCc2c(Nc3ccncc3)cccc21 [Compound 67, (3-((6-fluoroquinolin-4-yl)amino)phenyl)(4-(pyridin-4-ylamino)indolin-1-yl)methanone] |  | < 2
14 | O=C(Nc1cccc(Nc2ccccc2)c1)c1cccc(Nc2ccncc2)c1 [Compound 97, N-(3-(phenylamino)phenyl)-3-(pyridin-4-ylamino)benzamide] |  | < 5
15 | Cc1cc(Nc2cccc(C(=O)Nc3cccc(Nc4ccccc4)c3)c2)ccn1 [Compound 99, 3-((2-methylpyridin-4-yl)amino)-N-(3-(phenylamino)phenyl)benzamide] |  | < 2
16 | N#Cc1ccc2nccc(Nc3cccc(-c4nc5ccc(Nc6ccncc6)nc5[nH]4)c3)c2c1 [Compound 106, 4-((3-(5-(pyridin-4-ylamino)-3H-imidazo[4,5-b]pyridin-2-yl)phenyl)amino)quinoline-6-carbonitrile] | < 2 | 
17 | O=C(Nc1cc(Oc2ccccc2)ccn1)c1cccc(Nc2ccncc2)c1 [Compound 107, N-(4-phenoxypyridin-2-yl)-3-(pyridin-4-ylamino)benzamide] |  | < 5

Row | Compound | IC50 (Akt3 [1]) [µM] | IC50 (Akt3 [2]) [µM]
18 | O=C(Nc1cccc(Nc2ccncc2)n1)c1cccc(Nc2ccncc2)c1 [Compound 108, 3-(pyridin-4-ylamino)-N-(6-(pyridin-4-ylamino)pyridin-2-yl)benzamide] |  | < 5
19 | Cc1cc(Nc2cccc(C(=O)Nc3cccc(Nc4ccccc4)c3)c2)ccn1 [Compound 109, 3-((2-methylpyridin-4-yl)amino)-N-(3-(phenylamino)phenyl)benzamide] |  | < 1
20 | O=C1c2ccc(Nc3ccncc3)cc2CN1c1cccc(Nc2ccncc2)c1 [Compound 110, 5-(pyridin-4-ylamino)-2-(3-(pyridin-4-ylamino)phenyl)isoindolin-1-one] |  | < 0.5
21 | N#Cc1nccc(Nc2cccc(NC(=O)c3cccc(Nc4ccnc5ccc(F)cc45)c3)c2)c1C(F)(F)F [Compound 112, N-(3-(2-cyano-3-(trifluoromethyl)pyridin-4-ylamino)phenyl)-3-(6-fluoroquinolin-4-ylamino)benzamide] |  | < 5
22 | N#Cc1cc(Nc2cccc(NC(=O)c3cccc(Nc4ccnc5ccc(F)cc45)c3)c2)ccn1 [Compound 113, N-(3-(2-cyanopyridin-4-ylamino)phenyl)-3-(6-fluoroquinolin-4-ylamino)benzamide] |  | < 1
23 | Cc1cc(Nc2ccc3c(c2)CN(c2cccc(Nc4ccncc4)c2)C3=O)ccn1 [Compound 114, 5-(2-methylpyridin-4-ylamino)-2-(3-(pyridin-4-ylamino)phenyl)isoindolin-1-one] |  | < 1
24 | Cc1cc(Nc2ccc3c(c2)CN(c2cccc(Nc4cccc(F)c4)c2)C3=O)ccn1 [Compound 118, 2-(3-(3-fluorophenylamino)phenyl)-5-(2-methylpyridin-4-ylamino)isoindolin-1-one] |  | < 0.5
25 | Cc1nccc(Nc2ccc3c(c2)CN(c2cccc(Nc4ccncc4)c2)C3=O)c1Cl [Compound 119, 5-(3-chloro-2-methylpyridin-4-ylamino)-2-(3-(pyridin-4-ylamino)phenyl)isoindolin-1-one] |  | < 2
26 | Cc1cc(Nc2ccc3c(c2)CN(c2cccc(Nc4ccc(F)cc4)c2)C3=O)ccn1 [Compound 120, 2-(3-(4-fluorophenylamino)phenyl)-5-(2-methylpyridin-4-ylamino)isoindolin-1-one] |  | < 0.1
27 | Cc1cc(Nc2cccc(C(=O)Nc3cc(Nc4ccncc4)ccn3)c2)cc(N)n1 [Compound 125, 3-(2-amino-6-methylpyridin-4-ylamino)-N-(4-(pyridin-4-ylamino)pyridin-2-yl)benzamide] |  | < 5
28 | O=C(Nc1cc(Nc2ccncc2)ccn1)c1cccc(Nc2cccc3ncccc23)c1 [Compound 126, N-(4-(pyridin-4-ylamino)pyridin-2-yl)-3-(quinolin-5-ylamino)benzamide] |  | < 1
29 | Cc1c(Nc2cccc(C(=O)Nc3cc(Nc4ccncc4)ccn3)c2)ccnc1N [Compound 127, 3-(2-amino-3-methylpyridin-4-ylamino)-N-(4-(pyridin-4-ylamino)pyridin-2-yl)benzamide] |  | < 5
30 | Nc1cc(Nc2cccc(C(=O)Nc3cc(Nc4ccncc4)ccn3)c2)ccn1 [Compound 128, 3-(2-aminopyridin-4-ylamino)-N-(4-(pyridin-4-ylamino)pyridin-2-yl)benzamide] |  | < 5
31 | Cc1c(Nc2cccc(C(=O)Nc3cccc(Nc4ccccc4)c3)c2)ccnc1N [Compound 129, 3-(2-amino-3-methylpyridin-4-ylamino)-N-(3-(phenylamino)phenyl)benzamide] |  | < 5
32 | Nc1cc(Nc2cccc(C(=O)Nc3cccc(Nc4ccccc4)c3)c2)ccn1 [Compound 130, 3-(2-aminopyridin-4-ylamino)-N-(3-(phenylamino)phenyl)benzamide] |  | < 1
33 | Cc1cc(Nc2cccc(C(=O)Nc3cccc(Nc4ccccc4)c3)c2)cc(N)n1 [Compound 131, 3-(2-amino-6-methylpyridin-4-ylamino)-N-(3-(phenylamino)phenyl)benzamide] |  | < 10
34 | O=C1c2ccc(Nc3ccncc3)cc2CN1c1cccc(NC2CCCC2)c1 [Compound 132, 2-(3-(cyclopentylamino)phenyl)-5-(pyridin-4-ylamino)isoindolin-1-one] |  | < 1
